Measurements: US20080119463A1, “4-Anilino-3-quinolinecarbonitriles for the treatment of acute myelogenous leukemia (AML)” (Wyeth, priority 2006, published 2008)
Read-outs that look alike come from different tables or passages of the source.

What was measured:
U937 cells = experiment: proliferation assay of human AML cell line U937 (Cell Titer Glo, 3 days); format: cell-based; details: 3 days growth, Cell Titer Glo luminescence, read-out: IC50 (μM) from proliferation assays of human AML cell lines
Protocol: (§1) These compounds were prepared according to previously published methods (Boschelli, D. H., et. al., J. Med. Chem., 44, 3965 (2001); Boschelli, D. H., et. al., J. Med. Chem., 44, 822 (2001); Boschelli, D. H., et. al., Bioorg. Med. Chem. Lett., 13, 3797 (2003); Boschelli, D. H., et. al., J. Med. Chem., 47, 1599 (2004); and Ye, F. et al., 221st National Meeting of the American Chemical Society, San Diego, Calif. (April, 2001)), hereby incorporated by reference. For this study, 1×10^2 to 1×10^3 cells were plated in 95 μl of growth medium in each well of a 96-well microtiter plate. Compounds were added in 5 μl of medium such that the final concentration of DMSO in the medium was 0.25%. Cells were allowed to grow in a cell culture incubator (37° C.) for 3 days, at which time 100 μl of Promega Cell Titer Glo agent was added. Luminescence (lum) was measured in an Envision microplate reader. Data were processed by first obtaining % inhibition (100−(lum+cpd/lum−cpd); cpd […]). The data were then analyzed with the LSW IC50 calculation model ligand-receptor binding/hyperbolic (y=Bmax/(1+(x/IC50)). The IC50 is the concentration of test compound needed to reduce the total amount of cell proliferation by 50%.
For relevant experiments described above, standard growth medium for a particular cell line was used. For example, the growth medium for U937 cells is: RPMI 1640 supplemented with glutamine, 10% fetal bovine serum, and 50 μg/ml of gentamicin.

KG-1a cells = experiment: proliferation assay of human AML cell line KG-1a (Cell Titer Glo, 3 days); format: cell-based; details: 72 h, 3 days growth, Cell Titer Glo luminescence, read-out: IC50 (μM) from proliferation assays of human AML cell lines
Protocol: as §1
For relevant experiments described above, standard growth medium for a particular cell line was used. […]

IC50 (U937 cells; Homo sapiens, U-937, 72 h) [µM]	Structure (SMILES)	other results
5.1	COc1cc(Nc2c(C#N)cnc3cc4cc(OCCN5CCOCC5)c(OC)cc4cc23)c(Cl)cc1Cl [4-(2,4-dichloro-5-methoxy-anilino)-7-methoxy-8-[2-(4-morpholinyl)-ethoxy]-benzo[g]-quinoline-3-carbonitrile]	
2.4	COc1cc(Nc2c(C#N)cnc3cc(-c4ccc(CN5CCN(C)CC5)cn4)ccc23)c(Cl)cc1Cl [4-(2,4-dichloro-5-methoxy-anilino)-7-{5-[(4-methyl-piperazin-1-yl)-methyl]-2-pyridinyl]-quinoline-3-carbonitrile]	
0.73	COc1cc(Nc2c(C#N)cnc3cc(-c4ccc(CN5CCOCC5)cn4)ccc23)c(Cl)cc1Cl [4-(2,4-dichloro-5-methoxy-anilino)-7-{5-[(4-morpholinyl)-methyl]-2-pyridinyl]-quinoline-3-carbonitrile]	
1.2	COc1cc(Nc2c(C#N)cnc3cc4cc(OCCN5CCOCC5)c(OC)cc4cc23)c(Cl)cc1C [4-(2-chloro-4 methyl-5-methoxy-anilino)-7-methoxy-8-[2-(4-morpholinyl)-ethoxy]-benzo[g]-quinoline-3-carbonitrile]	
	COc1cc2cc3c(Nc4cc(OC)c(OC)c(OC)c4)c(C#N)cnc3cc2cc1OCCN1CCOCC1 [4-(3,4,5-methoxy-anilino)-7-methoxy-8-[2-(4-morpholinyl)-ethoxy]-benzo[g]-quinoline-3-carbonitrile]	IC50 (U937 cells): 2.1 µM
	COc1cc(Nc2c(C#N)cnc3cc(OCCCN4CCN(C)CC4)c(OC)cc23)c(Cl)cc1Cl [4-[(2,4-dichloro-5-methoxy-phenyl)amino]-6-methoxy-7-[3-(4-methyl-piperazin-1-yl)-propoxy]-quinoline-3-carbonitrile]	IC50 (KG-1a cells): 1.11 µM
	COc1cc(Nc2c(C#N)cnc3cc(-c4coc(CN5CCN(C)CC5)c4)c(OC)cc23)c(Cl)cc1Cl [4-[(2,4-dichloro-5-methoxy-phenyl)amino]-6-methoxy-7-{5-[(4-methyl-piperazin-1-yl)methyl]-3-furyl}-quinoline-3-carbonitrile]	IC50 (KG-1a cells): 0.78 µM
